Records with an inconclusive call do not appear. Calls of active or inactive are those of the source.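 How the source made its calls: active means score of 100, fluorescent reporter fully moved to nucleus as with estrogen, or estrogen effect fully blocked; inactive means score of 0 or 50, partial or no effect.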
The compounds below were run against G-protein coupled estrogen receptor 1 (Homo sapiens) (UniProt Q99527) (assay: PH-RFP redistribution after GPER stimulation – imaging, Cos7 GPR30-GFP, Akt PH domain, orthogonal assay for GPR30 ligand project, confirmation (AID 1219)). Conditions: PIP3 nuclear translocation imaging, at 10 µM, hits give high values.

Compound	translocation response score
Cc1cc(C)c2c(c1)[C@@H]1C=CC[C@@H]1[C@H](c1ccc(S(=O)(=O)N3CCOCC3)cc1)N2	100
Cc1cc(-c2nn3c(-c4ccccc4)nnc3s2)c2ccccc2n1	100
Nc1ncnc2c1ncn2C1CCC(CO)C(O)C1 (configuration not stated)	50 (inactive)
COc1cccc(NS(=O)(=O)c2ccc3c(c2)C2C=CCC2C(c2ccc(C(=O)O)cc2)N3)c1 (configuration not stated)	50 (inactive)
O=C(O)c1ccc2c(c1)C1C(Cl)C(Sc3ccccc3[N+](=O)[O-])CC1C(c1cccc([N+](=O)[O-])c1)N2 (configuration not stated)	0 (inactive)
O=C(O)c1cc(Cl)c2c(c1)[C@@H]1C=CC[C@@H]1[C@H](c1ccc(S(=O)(=O)N3CCOCC3)cc1)N2	50 (inactive)
COc1ccccc1N1CCN(C(=O)c2ccc3nc(-c4ccco4)c(-c4ccco4)nc3c2)CC1	100

From PubChem BioAssay AID1219 (NMMLSC, 2008)
